Molecules are shown by their SMILES. Active and inactive are the calls of the source.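 How the source made its calls: active means max delta Tm melting temperature shift above 1 degree C at some tested dose; inactive means the rest.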

This assay concerns the target Kelch-like ECH-associated protein 1 (Homo sapiens) (UniProt Q14145). The experiment in a line: thermal stabilisation of Keap1 Kelch domain – biophysical, thermal shift, RT-PCR instrument, dry powder, orthogonal assay for Keap1-Nrf2 interaction inhibitor project, dose response (AID 651829). The note with it: Recombinant Keap1 Kelch domain, Sypro Orange, top dose 38 µM, active compounds read high.

Kelch-like ECH-associated protein 1 (Homo sapiens), sequence (Q14145 whole entry, looked up, the tested form may be a part): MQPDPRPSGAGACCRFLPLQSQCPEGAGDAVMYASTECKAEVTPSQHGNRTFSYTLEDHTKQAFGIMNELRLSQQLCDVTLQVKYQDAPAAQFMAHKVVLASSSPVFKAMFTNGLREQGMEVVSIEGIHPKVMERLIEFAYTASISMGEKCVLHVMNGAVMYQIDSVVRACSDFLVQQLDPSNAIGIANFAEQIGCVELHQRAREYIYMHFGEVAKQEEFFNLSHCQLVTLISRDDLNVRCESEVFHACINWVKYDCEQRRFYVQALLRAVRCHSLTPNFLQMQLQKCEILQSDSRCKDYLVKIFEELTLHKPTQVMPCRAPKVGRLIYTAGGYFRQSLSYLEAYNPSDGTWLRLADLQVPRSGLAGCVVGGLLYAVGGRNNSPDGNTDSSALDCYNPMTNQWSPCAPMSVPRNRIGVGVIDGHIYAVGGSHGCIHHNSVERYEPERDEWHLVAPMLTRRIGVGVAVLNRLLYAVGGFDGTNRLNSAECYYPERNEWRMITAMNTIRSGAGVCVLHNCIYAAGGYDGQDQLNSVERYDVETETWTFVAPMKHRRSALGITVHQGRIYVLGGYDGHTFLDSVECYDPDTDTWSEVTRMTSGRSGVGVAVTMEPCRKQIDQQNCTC

`O=C(O)c1ccccc1C(=O)N1CCc2ccccc2C1CN1C(=O)c2ccccc2C1=O` (stereo unspecified): where the note is “at 2.6 µM”, the max delta Tm is 0.017 °C (inactive).

As to `O=C(O)[C@H]1CCCC[C@H]1C(=O)N1CCC2=C(CCCC2)C1CN1C(=O)c2ccccc2C1=O` (stereo partly specified), the max delta Tm runs as follows: (at 0.16 µM) 0.172 °C (inactive); (at 38 µM) 2.69 degrees C.

Regarding `COC(=O)C1CCCCC1C(=O)N1CCc2ccccc2C1CN1C(=O)c2ccccc2C1=O` (stereo unspecified), under “at 0.16 µM”, the max delta Tm was 0.175 °C (inactive).

For the molecule `Cc1cc(C)c(S(=O)(=O)Nc2cc(C(C(=O)OCc3ccccc3)C(=O)OCc3ccccc3)c(O)c3ccccc23)c(C)c1`, the max delta Tm (at 10 µM) was 0.088 °C (inactive).

Take `O=C(O)[C@H]1CCCC[C@H]1C(=O)N1CCc2ccccc2[C@H]1CNc1nc(Cl)nc2ccccc12`: the max delta Tm (at 0.16 µM) is 0.129 °C (inactive).

Consider `O=C(O)C1CCCCC1C(=O)N1CCc2ccccc2[C@H]1C(=O)NC12CC3CC(CC(C3)C1)C2` (stereo partly specified), for which the max delta Tm (at 2.6 µM) was -0.05 °C (inactive).

For the molecule `O=C(O)c1ccccc1C(=O)NC[C@@H]1c2ccccc2CCN1C(=O)[C@@H]1CCCC[C@@H]1C(=O)O`, the max delta Tm (at 0.16 µM) was -0.037 °C (inactive).

For the molecule `O=C(O)C1CCCCC1C(=O)N1CCc2ccccc2[C@H]1C(=O)NCCc1ccccc1` (stereo partly specified), where the note is “at 0.16 µM”, the max delta Tm is 0.168 °C (inactive).

`O=C(NC[C@@H]1c2ccccc2CCN1C(=O)[C@@H]1CCCC[C@@H]1C(=O)O)c1ccc(CN2CCOCC2)cc1`: for the setting “at 38 µM”, the max delta Tm was 0.592 °C (inactive).

`O=C(O)[C@H]1CCCC[C@H]1C(=O)NC(CN1C(=O)c2ccccc2C1=O)c1ccccc1` (stereo partly specified): for the setting “at 0.16 µM”, the max delta Tm is 0.154 °C (inactive).

For the origin of these results see PubChem BioAssay AID651829 (Broad Institute, 2012).
